Experimental findings from patent publication US9776997B2, “3-aryl-substituted imidazo[1,2-A]pyridines and their use” (Bayer Pharma Aktiengesellschaft, priority 2013, dated 2017) are described below.

Several values for one entry are separate records, joined by “and”; a condition that tells them apart may be missing. Equal values may be shown once. Where a name gives a salt, the structure may show the parent alone.

For the assay, the target named is T1, recombinant guanylate cyclase reporter cell line (Rattus norvegicus, UniProt P19686+P20595).
T1 construct: expressed in transfected cells; host or cells: recombinant reporter cell line
T1 sequence (P19686 1-690): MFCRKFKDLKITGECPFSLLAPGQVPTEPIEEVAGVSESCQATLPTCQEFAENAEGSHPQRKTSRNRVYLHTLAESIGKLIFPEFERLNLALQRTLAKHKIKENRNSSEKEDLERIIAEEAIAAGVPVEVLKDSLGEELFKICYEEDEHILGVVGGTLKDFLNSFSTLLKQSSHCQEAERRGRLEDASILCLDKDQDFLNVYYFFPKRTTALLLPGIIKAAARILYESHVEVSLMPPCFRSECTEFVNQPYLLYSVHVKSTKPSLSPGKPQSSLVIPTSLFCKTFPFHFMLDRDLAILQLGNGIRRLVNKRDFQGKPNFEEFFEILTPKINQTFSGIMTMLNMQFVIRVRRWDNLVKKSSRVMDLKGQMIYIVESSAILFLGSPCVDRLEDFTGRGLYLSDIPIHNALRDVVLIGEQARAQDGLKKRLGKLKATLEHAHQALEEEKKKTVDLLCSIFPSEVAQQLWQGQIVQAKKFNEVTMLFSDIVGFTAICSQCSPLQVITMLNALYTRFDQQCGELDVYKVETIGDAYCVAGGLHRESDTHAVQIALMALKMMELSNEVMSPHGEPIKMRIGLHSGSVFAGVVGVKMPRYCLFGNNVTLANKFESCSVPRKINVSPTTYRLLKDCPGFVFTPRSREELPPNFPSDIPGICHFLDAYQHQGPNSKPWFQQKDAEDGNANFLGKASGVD
T1 sequence (P20595 1-619): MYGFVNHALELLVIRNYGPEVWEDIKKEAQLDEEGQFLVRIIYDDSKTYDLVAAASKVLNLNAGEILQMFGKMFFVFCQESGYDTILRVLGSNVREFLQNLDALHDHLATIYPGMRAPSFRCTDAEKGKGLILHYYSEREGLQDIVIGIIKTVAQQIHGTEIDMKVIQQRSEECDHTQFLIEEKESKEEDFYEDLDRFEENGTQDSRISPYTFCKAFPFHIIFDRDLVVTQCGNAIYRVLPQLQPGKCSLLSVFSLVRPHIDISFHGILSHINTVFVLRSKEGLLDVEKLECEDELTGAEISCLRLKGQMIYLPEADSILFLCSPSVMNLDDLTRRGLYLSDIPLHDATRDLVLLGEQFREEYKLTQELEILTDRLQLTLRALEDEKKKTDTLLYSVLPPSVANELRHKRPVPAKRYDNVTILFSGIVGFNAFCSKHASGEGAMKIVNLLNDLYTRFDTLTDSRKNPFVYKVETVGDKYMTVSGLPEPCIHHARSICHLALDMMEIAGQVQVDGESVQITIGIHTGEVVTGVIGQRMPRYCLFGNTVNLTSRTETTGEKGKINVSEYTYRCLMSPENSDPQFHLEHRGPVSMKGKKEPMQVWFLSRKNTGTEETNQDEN
The assay can be described thus: Effect on a recombinant guanylate cyclase reporter cell line. Type of assay: cell-based. The settings on record: MEC = minimum effective concentration; in some cases mean values for individual determinations. How it is done:
B-2. Effect on a Recombinant Guanylate Cyclase Reporter Cell Line
The cellular effect of the inventive compounds is determined using a recombinant guanylate cyclase reporter cell line, as described in F. Wunder et al., Anal. Biochem. 339, 104-112 (2005).
Representative MEC values (MEC=minimum effective concentration) for the inventive compounds are shown in the table below (in some cases as mean values for individual determinations): […]
For `Cc1cc(OCc2ncccc2F)c2nc(C)c(-c3cn[nH]c3)n2c1` [Example 84, 8-[(3-fluoropyridin-2-yl)methoxy]-2,6-dimethyl-3-(1H-pyrazol-4-yl)imidazo[1,2-a]pyridine], the MEC stood at 1.0 µM. For the molecule `Cc1cc(OCc2ncccc2F)c2nc(C)c(-c3cnn(CC(C)(C)N)c3)n2c1` [Example 85, 1-(4-{8-[(3-Fluoropyridin-2-yl)methoxy]-2,6-dimethylimidazo[1,2-a]pyridin-3-yl}-1H-pyrazol-1-yl)-2-methylpropan-2-amine], the MEC was determined as 3.0 µM.

For the molecule `Cc1cc(OCc2c(F)ccc(F)c2F)c2nc(C)c(-c3cn[nH]c3)n2c1` [Example 86, 2,6-dimethyl-3-(1H-pyrazol-4-yl)-8-[(2,3,6-trifluorobenzyl)oxy]imidazo[1,2-a]pyridine], the MEC worked out at 0.03 µM. In the case of `Cc1cc(OCc2c(F)ccc(F)c2F)c2nc(C)c(-c3cnn(CC(C)(C)N)c3)n2c1` [Example 87, 1-(4-{2,6-Dimethyl-8-[(2,3,6-trifluorobenzyl)oxy]imidazopyridin-3-yl}-1H-pyrazol-1-yl)-2-methylpropan-2-amine] it was 0.1 µM. In the case of `Cc1cc(OCc2c(F)cccc2F)c2nc(C)c(-c3cn[nH]c3)n2c1` [Example 88, 8-[(2,6-difluorobenzyl)oxy]-2,6-dimethyl-3-(1H-pyrazol-4-yl)imidazo[1,2-a]pyridine] it was 0.01 µM. In the case of `Cc1cc(OCc2c(F)cccc2F)c2nc(C)c(-c3cnn(CC(C)(C)N)c3)n2c1` [Example 89, 1-(4-{8-[(2,6-Difluorobenzyl)oxy]-2,6-dimethylimidazo[1,2-a]pyridin-3-yl}-1H-pyrazol-1-yl)-2-methylpropan-2-amine] it was 0.03 µM; in that of `Cc1nc2c(OCc3c(F)cccc3F)cccn2c1-c1cnn(CC(C)(C)N)c1` [Example 90, 1-(4-{8-[(2,6-Difluorobenzyl)oxy]-2-methylimidazo[1,2-a]pyridin-3-yl}-1H-pyrazol-1-yl)-2-methylpropan-2-amine], 0.3 µM; in that of `Cc1cc(OCc2c(F)cccc2F)c2nc(C)c(-c3cnn(CCO)c3)n2c1` [Example 91, 2-(4-{8-[(2,6-difluorobenzyl)oxy]-2,6-dimethylimidazo[1,2-a]pyridin-3-yl}-1H-pyrazol-1-yl)ethanol], 0.1 µM.

With `Cc1cc(OCc2c(F)cccc2F)c2nc(C)c(-c3cnn(CCN4CCC(F)(F)CC4)c3)n2c1` [Example 92, 8-[(2,6-Difluorobenzyl)oxy]-3-{1-[2-(4,4-difluoropiperidin-1-yl)ethyl]-1H-pyrazol-4-yl}-2,6-dimethylimidazo[1,2-a]pyridine], the MEC was 0.03 µM. The figure for `Cc1cc(OCc2c(F)cccc2F)c2nc(C)c(-c3cnn(CCN4CCS(=O)(=O)CC4)c3)n2c1` [Example 93, 8-[(2,6-Difluorobenzyl)oxy]-3-{1-[2-(1,1-dioxidothiomorpholin-4-yl)ethyl]-1H-pyrazol-4-yl}-2,6-dimethylimidazo[1,2-a]pyridine] is 0.1 µM; for `Cc1cc(OCc2c(F)cccc2F)c2nc(C)c(-c3cnn(CCN4CCN(C)CC4)c3)n2c1` [Example 94, 8-[(2,6-Difluorobenzyl)oxy]-2,6-dimethyl-3-{1-[2-(4-methylpiperazin-1-yl)ethyl]-1H-pyrazol-4-yl}imidazo[1,2-a]pyridine] it is 0.3 µM. The figure for `Cc1cc(OCc2c(F)cccc2F)c2nc(C)c(-c3cnn(CCN4CC(O)C4)c3)n2c1` [Example 95, 1-[2-(4-{8-[(2,6-Difluorobenzyl)oxy]-2,6-dimethylimidazo[1,2-a]pyridin-3-yl}-1H-pyrazol-1-yl)ethyl]azetidin-3-ol trifluoroacetate] is 0.3 µM; for `Cc1cc(OCc2c(F)cccc2F)c2nc(C)c(-c3cnn(CCS(C)(=O)=O)c3)n2c1` [Example 96, 8-[(2,6-Difluorobenzyl)oxy]-2,6-dimethyl-3-{1-[2-(methylsulphonyl)ethyl]-1H-pyrazol-4-yl}imidazo[1,2-a]pyridine] it is 0.065 µM; for `Cc1cc(OCc2c(F)cccc2F)c2nc(C)c(-c3cnn(CCOC(N)=O)c3)n2c1` [Example 97, 2-(4-{8-[(2,6-Difluorobenzyl)oxy]-2,6-dimethylimidazo[1,2-a]pyridin-3-yl}-1H-pyrazol-1-yl)ethyl carbamate] it is 0.3 µM. For the molecule `Cc1cc(OCc2c(F)cccc2F)c2nc(C)c(-c3cnn(Cc4cc(C)on4)c3)n2c1` [Example 98, 8-[(2,6-Difluorobenzyl)oxy]-2,6-dimethyl-3-{1-[(5-methyl-1,2-oxazol-3-yl)methyl]-1H-pyrazol-4-yl}imidazo[1,2-a]pyridine], the MEC is 0.03 µM and 3.0 µM. The figure for `Cc1cc(OCc2c(F)cccc2F)c2nc(C)c(-c3cnn(CCc4c(C)n[nH]c4C)c3)n2c1` [Example 99, 8-[(2,6-Difluorobenzyl)oxy]-3-{1-[2-(3,5-dimethyl-1H-pyrazol-4-yl)ethyl]-1H-pyrazol-4-yl}-2,6-dimethylimidazo[1,2-a]pyridine] is 0.03 µM and 0.1 µM. In the case of `Cc1cc(OCc2c(F)cccc2F)c2nc(C)c(-c3cnn(CCCC#N)c3)n2c1` [Example 100, 4-(4-{8-[(2,6-Difluorobenzyl)oxy]-2,6-dimethylimidazo[1,2-a]pyridin-3-yl}-1H-pyrazol-1-yl)butanonitrile] it was 0.03 µM; in that of `Cc1cc(OCc2c(F)cccc2F)c2nc(C)c(-c3cnn(CCCc4nnn[nH]4)c3)n2c1` [Example 101, 8-[(2,6-Difluorobenzyl)oxy]-2,6-dimethyl-3-{1-[3-(1H-tetrazol-5-yl)propyl]-1H-pyrazol-4-yl}imidazo[1,2-a]pyridine], 0.1 µM. In the case of `COC(=O)CCn1cc(-c2c(C)nc3c(OCc4c(F)cccc4F)cc(C)cn23)cn1` [Example 102, Methyl 3-(4-{8-[(2,6-difluorobenzyl)oxy]-2,6-dimethylimidazo[1,2-a]pyridin-3-yl}-1H-pyrazol-1-yl)propanoate] it was 0.1 µM.

With `COC(=O)Cn1cc(-c2c(C)nc3c(OCc4c(F)cccc4F)cc(C)cn23)cn1` [Example 103, methyl (4-{8-[(2,6-difluorobenzyl)oxy]-2,6-dimethylimidazo[1,2-a]pyridin-3-yl}-1H-pyrazol-1-yl)acetate], the MEC stood at 0.03 µM. In the case of `COC(=O)C(C)n1cc(-c2c(C)nc3c(OCc4c(F)cccc4F)cc(C)cn23)cn1` (stereo not shown) [Example 104] it was 0.3 µM; in that of `COC(=O)CC(C)n1cc(-c2c(C)nc3c(OCc4c(F)cccc4F)cc(C)cn23)cn1` (stereo not shown) [Example 105], 0.01 µM; in that of `COC(=O)C1CC1n1cc(-c2c(C)nc3c(OCc4c(F)cccc4F)cc(C)cn23)cn1` (stereo not shown) [Example 106], 0.3 µM. In the case of `Cc1cc(OCc2c(F)cccc2F)c2nc(C)c(-c3cnn(CCC(=O)O)c3)n2c1` [Example 107, 3-(4-{8-[(2,6-Difluorobenzyl)oxy]-2,6-dimethylimidazo[1,2-a]pyridin-3-yl}-1H-pyrazol-1-yl)propanoic acid] it was 0.065 µM; in that of `Cc1cc(OCc2c(F)cccc2F)c2nc(C)c(-c3cnn(CC(=O)O)c3)n2c1` [Example 108, (4-{8-[(2,6-difluorobenzyl)oxy]-2,6-dimethylimidazo[1,2-a]pyridin-3-yl}-1H-pyrazol-1-yl)acetic acid], 0.3 µM. In the case of `Cc1cc(OCc2c(F)cccc2F)c2nc(C)c(-c3cnn(C(C)C(=O)O)c3)n2c1` (stereo not shown) [Example 109] it was 0.3 µM; in that of `Cc1cc(OCc2c(F)cccc2F)c2nc(C)c(-c3cnn(C4CC4C(=O)O)c3)n2c1` (stereo not shown) [Example 111], 1.0 µM; in that of `Cc1cc(OCc2c(F)cccc2F)c2nc(C)c(-c3cnn(CC(=O)NC4CC4)c3)n2c1` [Example 113, N-Cyclopropyl-2-(4-{8-[(2,6-difluorobenzyl)oxy]-2,6-dimethylimidazo[1,2-a]pyridin-3-yl}-1H-pyrazol-1-yl)acetamide], 0.03 µM.
